Measurements published in ChEMBL document CHEMBL5465560, “Selectivity Literature for EUbOPEN Chemogenomic Library” (2024).

Legend:
[1] = target: T1, Tyrosine-protein kinase Tec (Homo sapiens) (UniProt P42680); test: Selectivity interaction (KinomeScan (DiscoverX)) EUB0001868a TEC; settings: at 1 µM
T1 sequence (whole entry): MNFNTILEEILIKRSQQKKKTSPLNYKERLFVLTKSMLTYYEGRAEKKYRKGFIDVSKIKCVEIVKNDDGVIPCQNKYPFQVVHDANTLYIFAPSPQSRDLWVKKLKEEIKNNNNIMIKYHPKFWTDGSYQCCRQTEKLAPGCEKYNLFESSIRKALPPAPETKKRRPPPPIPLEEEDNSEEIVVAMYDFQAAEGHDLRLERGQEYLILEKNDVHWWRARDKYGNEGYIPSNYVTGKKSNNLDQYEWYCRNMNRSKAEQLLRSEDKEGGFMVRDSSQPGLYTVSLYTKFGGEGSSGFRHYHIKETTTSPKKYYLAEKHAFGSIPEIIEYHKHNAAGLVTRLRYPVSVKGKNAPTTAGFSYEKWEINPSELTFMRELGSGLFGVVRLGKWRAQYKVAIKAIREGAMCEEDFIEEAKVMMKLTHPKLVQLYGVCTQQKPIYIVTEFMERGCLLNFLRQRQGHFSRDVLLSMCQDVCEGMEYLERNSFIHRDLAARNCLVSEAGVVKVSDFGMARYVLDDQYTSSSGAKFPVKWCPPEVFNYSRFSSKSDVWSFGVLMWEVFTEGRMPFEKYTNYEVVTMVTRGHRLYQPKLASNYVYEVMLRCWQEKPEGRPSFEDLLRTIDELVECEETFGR

[2] = target: Serine/threonine-protein kinase PLK2 (Homo sapiens, UniProt Q9NYY3); test: Selectivity interaction (Kinase panel (Z-LYTE Assay)) EUB0001632a PLK2; settings: at 10 µM
[3] = target: Ribosomal protein S6 kinase alpha-1 (Homo sapiens, UniProt Q15418); test: Selectivity interaction (ActivX KiNativ screen (kinase selectivity in THP-1 cell lysates)) EUB0000639a RPS6KA1; format: subcellular; settings: lysate, at 0.04 µM
[4] = target: T2, G protein-coupled receptor kinase 3 (Homo sapiens) (UniProt P35626); test: Selectivity interaction (KinomeScan (DiscoverX)) EUB0001049a ADRBK2; settings: at 1 µM
T2 sequence (whole entry): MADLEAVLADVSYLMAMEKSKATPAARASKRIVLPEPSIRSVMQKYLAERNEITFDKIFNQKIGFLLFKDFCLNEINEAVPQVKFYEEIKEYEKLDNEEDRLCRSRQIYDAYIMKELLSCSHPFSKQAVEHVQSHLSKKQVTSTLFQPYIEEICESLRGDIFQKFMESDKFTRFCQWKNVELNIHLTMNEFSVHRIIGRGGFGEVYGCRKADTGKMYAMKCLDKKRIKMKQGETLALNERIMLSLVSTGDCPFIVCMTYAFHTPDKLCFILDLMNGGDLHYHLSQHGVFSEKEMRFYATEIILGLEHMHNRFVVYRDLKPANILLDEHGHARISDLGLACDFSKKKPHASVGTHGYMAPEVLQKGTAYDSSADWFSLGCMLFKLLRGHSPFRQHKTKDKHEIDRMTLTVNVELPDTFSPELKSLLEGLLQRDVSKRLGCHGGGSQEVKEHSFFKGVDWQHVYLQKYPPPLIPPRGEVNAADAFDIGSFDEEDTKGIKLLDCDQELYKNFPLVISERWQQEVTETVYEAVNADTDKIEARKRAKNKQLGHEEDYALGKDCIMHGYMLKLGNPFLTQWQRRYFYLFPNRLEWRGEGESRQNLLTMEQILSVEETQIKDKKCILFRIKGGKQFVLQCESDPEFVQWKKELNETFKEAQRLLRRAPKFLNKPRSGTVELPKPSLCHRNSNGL

[5] = target: T3, Serine/threonine-protein kinase PLK4 (Homo sapiens) (UniProt O00444); test: Selectivity interaction (KinomeScan (DiscoverX)) EUB0001049a PLK4; settings: at 1 µM
T3 sequence (whole entry): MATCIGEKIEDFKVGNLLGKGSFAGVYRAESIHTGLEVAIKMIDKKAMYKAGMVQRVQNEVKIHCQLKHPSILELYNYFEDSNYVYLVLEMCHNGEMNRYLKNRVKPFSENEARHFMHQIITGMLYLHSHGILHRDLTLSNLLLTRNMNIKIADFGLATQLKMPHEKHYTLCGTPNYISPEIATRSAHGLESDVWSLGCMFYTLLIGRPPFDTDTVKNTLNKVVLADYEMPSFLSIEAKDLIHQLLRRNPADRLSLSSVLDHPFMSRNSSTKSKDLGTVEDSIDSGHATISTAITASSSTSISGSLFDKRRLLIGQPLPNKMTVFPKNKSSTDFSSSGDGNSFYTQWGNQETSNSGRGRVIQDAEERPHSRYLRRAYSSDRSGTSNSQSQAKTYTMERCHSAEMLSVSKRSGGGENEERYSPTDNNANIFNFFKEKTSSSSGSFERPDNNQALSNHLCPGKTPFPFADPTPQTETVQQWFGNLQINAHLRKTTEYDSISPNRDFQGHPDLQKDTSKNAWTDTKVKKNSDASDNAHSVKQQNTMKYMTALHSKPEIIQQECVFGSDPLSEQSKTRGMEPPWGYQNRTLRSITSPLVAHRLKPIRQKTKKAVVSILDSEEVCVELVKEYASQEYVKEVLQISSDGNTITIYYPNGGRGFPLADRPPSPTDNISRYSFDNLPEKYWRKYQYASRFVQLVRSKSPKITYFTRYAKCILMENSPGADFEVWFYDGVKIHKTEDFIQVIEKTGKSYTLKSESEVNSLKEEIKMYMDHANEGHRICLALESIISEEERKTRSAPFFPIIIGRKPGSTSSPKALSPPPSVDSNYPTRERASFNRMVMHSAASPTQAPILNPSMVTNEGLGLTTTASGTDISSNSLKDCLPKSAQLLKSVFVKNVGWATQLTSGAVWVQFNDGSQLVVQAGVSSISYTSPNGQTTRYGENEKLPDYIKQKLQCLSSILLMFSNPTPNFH

[6] = target: Death-associated protein kinase 3 (Homo sapiens) (UniProt O43293); test: Selectivity interaction (KinomeScan (DiscoverX)) EUB0001049a DAPK3; settings: at 1 µM
[7] = target: Protein arginine N-methyltransferase 6 (Homo sapiens, UniProt Q96LA8); test: Selectivity interaction (Methyltransferase screen (radiometric assays, panel of 8 PRMTs, 21 protein lysine methyltransferases, 3 DNA methyltransferases, and one RNA methyltransferase)) EUB0000271b PRMT6
Protein arginine N-methyltransferase 6, sequence (Q96LA8 whole entry, looked up): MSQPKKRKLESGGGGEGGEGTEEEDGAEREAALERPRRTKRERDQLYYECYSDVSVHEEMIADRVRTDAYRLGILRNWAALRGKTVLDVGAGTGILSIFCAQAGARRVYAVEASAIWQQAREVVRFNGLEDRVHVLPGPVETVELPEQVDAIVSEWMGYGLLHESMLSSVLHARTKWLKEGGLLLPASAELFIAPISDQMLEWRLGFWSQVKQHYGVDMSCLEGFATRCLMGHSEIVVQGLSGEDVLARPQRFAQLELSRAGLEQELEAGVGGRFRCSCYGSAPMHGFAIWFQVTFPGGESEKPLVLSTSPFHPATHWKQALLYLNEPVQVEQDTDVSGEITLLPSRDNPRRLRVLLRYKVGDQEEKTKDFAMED

Death-associated protein kinase 3 (Homo sapiens), sequence (O43293 whole entry, looked up): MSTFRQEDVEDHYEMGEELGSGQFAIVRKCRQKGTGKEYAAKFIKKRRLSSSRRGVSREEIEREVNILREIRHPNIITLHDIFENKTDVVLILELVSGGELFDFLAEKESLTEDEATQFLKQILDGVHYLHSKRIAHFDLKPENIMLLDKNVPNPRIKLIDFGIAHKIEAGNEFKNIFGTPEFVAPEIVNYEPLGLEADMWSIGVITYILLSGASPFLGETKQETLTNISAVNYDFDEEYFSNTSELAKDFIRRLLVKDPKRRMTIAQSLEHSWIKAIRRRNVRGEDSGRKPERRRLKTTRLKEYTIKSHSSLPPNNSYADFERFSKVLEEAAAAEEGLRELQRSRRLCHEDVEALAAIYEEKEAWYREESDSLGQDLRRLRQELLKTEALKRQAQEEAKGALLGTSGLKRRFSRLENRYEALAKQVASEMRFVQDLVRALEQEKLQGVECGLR
Ribosomal protein S6 kinase alpha-1, sequence (Q15418 whole entry): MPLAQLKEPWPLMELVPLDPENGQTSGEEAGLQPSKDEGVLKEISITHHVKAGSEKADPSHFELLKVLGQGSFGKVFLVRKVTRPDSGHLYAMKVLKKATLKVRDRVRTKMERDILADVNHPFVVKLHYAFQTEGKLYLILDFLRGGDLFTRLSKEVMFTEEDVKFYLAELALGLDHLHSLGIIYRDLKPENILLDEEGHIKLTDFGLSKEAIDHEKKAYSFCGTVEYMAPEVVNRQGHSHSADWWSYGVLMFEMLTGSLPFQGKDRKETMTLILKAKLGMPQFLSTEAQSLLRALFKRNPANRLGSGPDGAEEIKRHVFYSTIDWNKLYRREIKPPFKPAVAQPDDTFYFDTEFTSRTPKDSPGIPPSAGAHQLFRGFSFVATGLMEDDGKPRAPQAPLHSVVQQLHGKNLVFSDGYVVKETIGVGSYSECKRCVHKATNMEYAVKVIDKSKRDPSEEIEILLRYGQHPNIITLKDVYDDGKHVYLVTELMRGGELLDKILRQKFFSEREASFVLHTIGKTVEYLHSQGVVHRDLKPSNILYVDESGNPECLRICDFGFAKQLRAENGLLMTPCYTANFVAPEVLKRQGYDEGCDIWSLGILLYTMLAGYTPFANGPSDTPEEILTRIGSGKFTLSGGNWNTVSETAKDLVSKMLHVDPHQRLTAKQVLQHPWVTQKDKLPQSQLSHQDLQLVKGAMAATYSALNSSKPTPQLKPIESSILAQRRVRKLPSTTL
Serine/threonine-protein kinase PLK2, sequence (Q9NYY3 whole entry, looked up): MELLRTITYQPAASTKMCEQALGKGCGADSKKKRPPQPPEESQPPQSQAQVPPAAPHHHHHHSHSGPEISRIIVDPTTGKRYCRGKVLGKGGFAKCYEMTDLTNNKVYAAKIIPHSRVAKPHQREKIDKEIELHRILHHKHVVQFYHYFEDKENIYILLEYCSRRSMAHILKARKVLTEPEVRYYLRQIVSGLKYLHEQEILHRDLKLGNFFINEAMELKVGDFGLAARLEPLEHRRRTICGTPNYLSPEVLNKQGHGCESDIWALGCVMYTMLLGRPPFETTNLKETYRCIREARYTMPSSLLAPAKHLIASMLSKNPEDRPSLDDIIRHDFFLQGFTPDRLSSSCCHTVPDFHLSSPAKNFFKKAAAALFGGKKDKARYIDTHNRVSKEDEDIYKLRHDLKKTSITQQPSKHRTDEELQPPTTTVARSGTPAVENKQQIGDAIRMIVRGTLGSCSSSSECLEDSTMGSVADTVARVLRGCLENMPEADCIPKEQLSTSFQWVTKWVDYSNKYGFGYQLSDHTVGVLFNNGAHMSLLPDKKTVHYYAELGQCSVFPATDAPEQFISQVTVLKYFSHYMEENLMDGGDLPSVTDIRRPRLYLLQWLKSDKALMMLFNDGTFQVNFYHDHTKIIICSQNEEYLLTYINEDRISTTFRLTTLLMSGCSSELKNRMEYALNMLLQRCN

`Cc1cc(-c2ccnc(Nc3cnn(C)c3)n2)ccc1CNC(=O)N1CC(OC(C)C)C1` was tested, and the % of control [1] was 46%.
`Cn1cc(-n2cnc3c(NCc4nc5cc(Cl)c(Cl)cc5[nH]4)nc(N4CCOCC4)nc32)cn1` gave a % of control [2] of -0.658%.
For `CC[C@@H]1[C@H](F)C(=O)N[C@@H]1COc1nccc2cc(C(N)=O)c(OC)cc12` [ZIMLOVISERTIB], the % of inhibition [3] was -5.9%.
Compound `COc1cc(Nc2nc(C)cc(-c3cnn4nc(OC)ccc34)n2)cc(C(F)(F)F)c1` has a % of control [4] of 100%, a % of control [5] of 49% and a % of control [6] of 100%.
`Cc1cc(C)cc([C@@H]2c3cc(C)ccc3NC(=O)CN2C(=O)c2ccc(Br)s2)c1` gave a % of activity ([7]; at 1 µM) of 16.7% and a % of activity ([7]; at 10 µM) of 7.33%.
